The target in this test is T1, endogenous PIP4K2C C-terminally tagged with HiBiT peptide in MOLT-4 cells (Homo sapiens, UniProt Q8TBX8).
T1 construct: to C-terminally tag endogenous PIP4K2C with HiBiT peptide; host or cells: MOLT-4 (CRISPR-Cas9 knock-in clone)
T1 sequence (Q8TBX8 1-421): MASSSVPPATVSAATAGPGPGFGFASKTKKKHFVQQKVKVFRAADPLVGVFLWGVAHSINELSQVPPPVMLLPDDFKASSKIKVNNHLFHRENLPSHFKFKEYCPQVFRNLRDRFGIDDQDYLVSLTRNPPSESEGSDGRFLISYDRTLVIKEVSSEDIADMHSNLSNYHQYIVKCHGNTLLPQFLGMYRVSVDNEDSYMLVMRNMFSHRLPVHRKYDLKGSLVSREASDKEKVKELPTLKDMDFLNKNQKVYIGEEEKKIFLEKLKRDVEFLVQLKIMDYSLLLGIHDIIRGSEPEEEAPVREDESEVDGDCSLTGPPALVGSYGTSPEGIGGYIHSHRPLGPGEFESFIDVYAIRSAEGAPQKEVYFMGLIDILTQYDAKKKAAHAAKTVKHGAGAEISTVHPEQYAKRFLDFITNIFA
Kind of test: HiBiT PIP4K2C degradation assay in MOLT-4 cells. Type of test: cell-based. The conditions noted are these: 24 hours, 10-point dose response, top concentration 10 micromolar, read-out: HiBIT-degradation MOLT4 PIP4k2C 24 hours DC50. On the procedure:
Following clonal selection, genotype was confirmed by Sanger sequencing. […] Nano-Glo® HiBiT Lytic Assay System was purchased from Promega (Madison, WI, Catalog number N3030). Cell culture flasks and 384-well microplates were purchased from Corning (Glendale, AZ).
To study PIP4K2C degradation, 384-well plates were plated with a 10-point dose response curve, 3-fold dilution, in duplicate with a top starting concentration of 10 micromolar. Subsequently 22,500 cells were added to each well and incubated at 37C in 5% CO2 for 24 hours. At the end of the incubation time, cells were treated with the Nano-Glo® HiBiT Lytic Detection System following the manufacturer's instructions. Luminescence was measured with a PHERAstar FSX plate reader (BMG Labtech, Cary, NC). The Levenberg-Marquardt algorithm was used to fit a Hill equation to dose-response data to calculate DC50 values (see Table 6).
(In general: HiBiT is a short tag that completes a luciferase, so light tracks the accessible tagged protein.)

Structures are written as SMILES.

By DC50 is commonly meant the concentration at which degradation of the target reaches its halfway point. With `O=C1CCC(N2Cc3cc(OCCCCC(=O)N4CCC5(CC4)CCN(c4cncc(Nc6ncc(Cl)c(-c7cccc(-c8ccccc8)c7)n6)c4)C5=O)ccc3C2=O)C(=O)N1` (stereo not drawn) [Compound 87, 3-(5-((5-(2-(5-((4-([1,1′-biphenyl]-3-yl)-5-chloropyrimidin-2-yl)amino)pyridin-3-yl)-1-oxo-2,8-diazaspiro[4.5]decan-8-yl)-5-oxopentyl)oxy)-1-oxoisoindolin-2-yl)piperidine-2,6-dione], the DC50 was under 500 nM.
As for `O=C1CCC(Nc2ccc(C3CCN(CC(=O)N4CCC5(CC4)CCN(c4cncc(Nc6ncc(Cl)c(-c7cccc(C8CC8)c7)n6)c4)C5=O)CC3)cc2)C(=O)N1` (stereo not drawn) [Compound 206, 3-[4-[1-[2-[2-[5-[[5-chloro-4-(3-cyclopropylphenyl)pyrimidin-2-yl]amino]-3-pyridyl]-1-oxo-2,8-diazaspiro[4.5]decan-8-yl]-2-oxo-ethyl]-4-piperidyl]anilino]piperidine-2,6-dione], the figure is under 500 nM; as for `O=C1CCC(N2C(=O)c3cccc(OCCCN4CCN(CCCCCCC(=O)Nc5cncc(Nc6ncc(Cl)c(-c7cccc(-c8ccccc8)c7)n6)c5)CC4)c3C2=O)C(=O)N1` (stereo not drawn) [Compound 58, N-(5-((4-([1,1′-biphenyl]-3-yl)-5-chloropyrimidin-2-yl)amino)pyridin-3-yl)-7-(4-(3-((2-(2,6-dioxopiperidin-3-yl)-1,3-dioxoisoindolin-4-yl)oxy)propyl)piperazin-1-yl)heptanamide], under 500 nM; as for `O=C1CCC(Nc2ccc(C3CCN(CC(=O)N4CCC5(CC4)CCN(c4cncc(Nc6ncc(Cl)c(-c7cccc(N8CCCC8)c7)n6)c4)C5=O)CC3)cc2)C(=O)N1` (stereo not drawn) [Compound 179, 3-((4-(1-(2-(2-(5-((5-chloro-4-(3-(pyrrolidin-1-yl)phenyl)pyrimidin-2-yl)amino)pyridin-3-yl)-1-oxo-2,8-diazaspiro[4.5]decan-8-yl)-2-oxoethyl)piperidin-4-yl)phenyl)amino)piperidine-2,6-dione], under 500 nM.
Consider `O=C1CCC(Nc2ccc(N3CCC(CN4CCC(C(=O)Nc5cncc(Nc6ncc(Cl)c(-c7cccc(-c8ccccc8)c7)n6)c5)CC4)CC3)cc2)C(=O)N1` (stereo not drawn) [Compound 187, N-(5-((4-([1,1′-biphenyl]-3-yl)-5-chloropyrimidin-2-yl)amino)pyridin-3-yl)-1-((1-(4-((2,6-dioxopiperidin-3-yl)amino)phenyl)piperidin-4-yl)methyl)piperidine-4-carboxamide], for which the DC50 was under 500 nM.
As for `Cn1c(=O)n(C2CCC(=O)NC2=O)c2ccc(C3CCN(CC(=O)N4CCC5(CC4)CCN(c4cncc(Nc6ncc(Cl)c(-c7cccc(C8CC8)c7)n6)c4)C5=O)CC3)cc21` (stereo not drawn) [Compound 209, 3-(5-(1-(2-(2-(5-((5-chloro-4-(3-cyclopropylphenyl)pyrimidin-2-yl)amino)pyridin-3-yl)-1-oxo-2,8-diazaspiro[4.5]decan-8-yl)-2-oxoethyl)piperidin-4-yl)-3-methyl-2-oxo-2,3-dihydro-1H-benzo[d]imidazol-1-yl)piperidine-2,6-dione], the DC50 was under 500 nM.
For `O=C1CCC(N2Cc3cc(OCCCCCCCCN4CCC5(CC4)CCN(c4cncc(Nc6ncc(Cl)c(-c7cccc(-c8ccccc8)c7)n6)c4)C5=O)ccc3C2=O)C(=O)N1` (stereo not drawn) [Compound 56, 3-(5-((8-(2-(5-((4-([1,1′-biphenyl]-3-yl)-5-chloropyrimidin-2-yl)amino)pyridin-3-yl)-1-oxo-2,8-diazaspiro[4.5]decan-8-yl)octyl)oxy)-1-oxoisoindolin-2-yl)piperidine-2,6-dione] the value was under 500 nM; for `O=C1CCC(N2C(=O)c3cccc(OCCCCCCCCC(=O)N4CCC5(CC4)CCN(c4cncc(Nc6ncc(Cl)c(-c7cccc(-c8ccccc8)c7)n6)c4)C5=O)c3C2=O)C(=O)N1` (stereo not drawn) [Compound 78, 4-((9-(2-(5-((4-([1,1′-biphenyl]-3-yl)-5-chloropyrimidin-2-yl)amino)pyridin-3-yl)-1-oxo-2,8-diazaspiro[4.5]decan-8-yl)-9-oxononyl)oxy)-2-(2,6-dioxopiperidin-3-yl)isoindoline-1,3-dione], 500 to 1000 nM; for `O=C1CCC(N2Cc3cc(C4CCN(C(=O)CN5CCC(C(=O)Nc6cncc(Nc7ncc(Cl)c(-c8cccc(C9CC9)c8)n7)c6)CC5)CC4)ccc3C2=O)C(=O)N1` (stereo not drawn) [Compound 196, N-(5-((5-chloro-4-(3-cyclopropylphenyl)pyrimidin-2-yl)amino)pyridin-3-yl)-1-(2-(4-(2-(2,6-dioxopiperidin-3-yl)-1-oxoisoindolin-5-yl)piperidin-1-yl)-2-oxoethyl)piperidine-4-carboxamide], under 500 nM.
Turning to `O=C1CCC(N2Cc3cc(C4CCN(CC(=O)N5CCC6(CC5)CCN(c5cncc(Nc7ncc(Cl)c(-c8cccc(C9CC9)c8)n7)c5)C6=O)CC4)ccc3C2=O)C(=O)N1` (stereo not drawn) [Compound 207, 3-(5-(1-(2-(2-(5-((5-chloro-4-(3-cyclopropylphenyl)pyrimidin-2-yl)amino)pyridin-3-yl)-1-oxo-2,8-diazaspiro[4.5]decan-8-yl)-2-oxoethyl)piperidin-4-yl)-1-oxoisoindolin-2-yl)piperidine-2,6-dione], the DC50 was under 500 nM.
As for `O=C1CCC(N2C(=O)c3cccc(OCCCN4CCN(CCCCCCCC(=O)Nc5cncc(Nc6ncc(Cl)c(-c7cccc(-c8ccccc8)c7)n6)c5)CC4)c3C2=O)C(=O)N1` (stereo not drawn) [Compound 67, N-(5-((4-([1,1′-biphenyl]-3-yl)-5-chloropyrimidin-2-yl)amino)pyridin-3-yl)-8-(4-(3-((2-(2,6-dioxopiperidin-3-yl)-1,3-dioxoisoindolin-4-yl)oxy)propyl)piperazin-1-yl)octanamide], the DC50 is under 500 nM.
In the case of `O=C1CCC(Nc2ccc(N3CCC(CC(=O)N4CCC5(CC4)CCN(c4cncc(Nc6ncc(Cl)c(N7CCCCC7)n6)c4)C5=O)CC3)cc2)C(=O)N1` (stereo not drawn) [Compound 168, 3-((4-(4-(2-(2-(5-((5-chloro-4-(piperidin-1-yl)pyrimidin-2-yl)amino)pyridin-3-yl)-1-oxo-2,8-diazaspiro[4.5]decan-8-yl)-2-oxoethyl)piperidin-1-yl)phenyl)amino)piperidine-2,6-dione], the DC50 was under 500 nM.
For `O=C1CCC(N2Cc3cc(OCCCCCCCCCC(=O)N4CCC5(CC4)CCN(c4cncc(Nc6ncc(Cl)c(-c7cccc(-c8ccccc8)c7)n6)c4)C5=O)ccc3C2=O)C(=O)N1` (stereo not drawn) [Compound 61, 3-(5-((10-(2-(5-((4-([1,1′-biphenyl]-3-yl)-5-chloropyrimidin-2-yl)amino)pyridin-3-yl)-1-oxo-2,8-diazaspiro[4.5]decan-8-yl)-10-oxodecyl)oxy)-1-oxoisoindolin-2-yl)piperidine-2,6-dione] the value was under 500 nM; for `O=C1CCC(Nc2ccc(N3CCC(O)(CC(=O)N4CCC5(CC4)CCN(c4cncc(Nc6ncc(Cl)c(-c7cccc(-c8ccccc8)c7)n6)c4)C5=O)CC3)cc2)C(=O)N1` (stereo not drawn) [Compound 180, 3-[4-[4-[2-[2-[5-[[5-chloro-4-(3-phenylphenyl)pyrimidin-2-yl]amino]-3-pyridyl]-1-oxo-2,8-diazaspiro[4.5]decan-8-yl]-2-oxo-ethyl]-4-hydroxy-1-piperidyl]anilino]piperidine-2,6-dione], under 500 nM; for `O=C(CCCCCOc1cccc2c1C(=O)N(C1CCC(=O)NC1=O)C2=O)NCCCCCC(=O)Nc1cncc(Nc2ncc(Cl)c(-c3cccc(-c4ccccc4)c3)n2)c1` (stereo not drawn) [Compound 83, N-(5-((4-([1,1′-biphenyl]-3-yl)-5-chloropyrimidin-2-yl)amino)pyridin-3-yl)-6-(6-((2-(2,6-dioxopiperidin-3-yl)-1,3-dioxoisoindolin-4-yl)oxy)hexanamido)hexanamide], 1000 to 5000 nM.
As for `O=C1CCC(Nc2ccc(N3CCC(N4CCC5(CCN(c6cncc(Nc7ncc(Cl)c(N8CCCCC8)n7)c6)C5=O)CC4)CC3)cc2)C(=O)N1` (stereo not drawn) [Compound 91, 3-((4-(4-(2-(5-((5-chloro-4-(piperidin-1-yl)pyrimidin-2-yl)amino)pyridin-3-yl)-1-oxo-2,8-diazaspiro[4.5]decan-8-yl)piperidin-1-yl)phenyl)amino)piperidine-2,6-dione], the figure is 1000 to 5000 nM.
Turning to `O=C1CCC(Nc2ccc(C3CCN(CC(=O)N4CCC5(CC4)CCN(c4cncc(Nc6ncc(Cl)c(N7CCOC(c8ccccc8)C7)n6)c4)C5=O)CC3)cc2)C(=O)N1` (stereo not drawn) [Compound 186, 3-[4-[1-[2-[2-[5-[[5-chloro-4-(2-phenylmorpholin-4-yl)pyrimidin-2-yl]amino]-3-pyridyl]-1-oxo-2,8-diazaspiro[4.5]decan-8-yl]-2-oxo-ethyl]-4-piperidyl]anilino]piperidine-2,6-dione], the DC50 is under 500 nM.
For the compound `O=C1CCC(Nc2ccc(N3CCC(CN4CCC5(CC4)CCN(c4cncc(Nc6ncc(Cl)c(N7CCCC(C8CC8)C7)n6)c4)C5=O)CC3)cc2)C(=O)N1` (stereo not drawn) [Compound 212, 3-((4-(4-((2-(5-((5-chloro-4-(3-cyclopropylpiperidin-1-yl)pyrimidin-2-yl)amino)pyridin-3-yl)-1-oxo-2,8-diazaspiro[4.5]decan-8-yl)methyl)piperidin-1-yl)phenyl)amino)piperidine-2,6-dione], the DC50 was under 500 nM.

For the origin of these results see patent US20260184691A1, “INHIBITORS AND DEGRADERS OF PIP4K PROTEIN” (Larkspur Biosciences, Inc., priority 2022, published 2026).
